Values joined by “and” are separate entries in the source; they are usually repeats but may differ in a detail not shown here. Identical values can stand only once. Like-named read-outs stand apart in the source and are kept apart here.
How the values were obtained:
Test in all cases: P. falciparum proliferation assay (72 h, fluorescent DNA-intercalating dye)
Format in all cases: cell-based, Plasmodium falciparum
[1] = tested on: HCR1 parasites (highly cipargamin-resistant clone 1); details: for Parasite proliferation (% of no-cipargamin control), MEAN: MEAN of 16 experiments; for IC50: Plasmodium falciparum
Procedure: (§1) For experiments with all other parasites, the effects of compounds of interest on parasite proliferation was measured in 96-well plates containing serial dilutions of the compounds in culture medium, with a fluorescent DNA-intercalating dye used to detect surviving parasites. The assays were initiated with erythrocytes infected with predominantly ring-stage parasites, and the starting parasitaemia and haematocrit were both 1%.

[2] = tested on: Dd2-Polδ parasites
Procedure: as §1

[3] = tested on: Dd2-PfATP4^T418N,P990R parasites; details: for Parasite proliferation (% of no-cipargamin control), MEAN: MEAN of 16 experiments
Procedure: as §1

[4] = tested on: HCR2 parasites (highly cipargamin-resistant clone 2); details: for Parasite proliferation (% of no-cipargamin control), MEAN: MEAN of 16 experiments; for IC50: Plasmodium falciparum
Procedure: as §1

[5] = tested on: Dd2 parasites; details: Dd2; for Parasite proliferation (% of no-cipargamin control), MEAN: MEAN of 16 experiments
Procedure: as §1

C[C@H]1Cc2c([nH]c3cc(Cl)c(F)cc23)[C@@]2(N1)C(=O)Nc1ccc(Cl)cc12 [Cipargamin]
Parasite proliferation (% of no-cipargamin control), MEAN ([1]; HCR1, [Cipargamin] 100 nM): 98.5 % of no-cipargamin control | Parasite proliferation (% of no-cipargamin control) ([1]; HCR1, [Cipargamin] 100 nM, single experiments 1-16): 100.9 % of no-cipargamin control and 100.0 % of no-cipargamin control and 87.1 % of no-cipargamin control and 88.2 % of no-cipargamin control | Parasite proliferation (% of no-cipargamin control), MEAN ([1]; HCR1, [Cipargamin] 200 nM): 94.4 % of no-cipargamin control | Parasite proliferation (% of no-cipargamin control), MEAN ([1]; HCR1, [Cipargamin] 400 nM): 91.8 % of no-cipargamin control | Parasite proliferation (% of no-cipargamin control), MEAN ([1]; HCR1, [Cipargamin] 800 nM): 83.6 % of no-cipargamin control | Parasite proliferation (% of no-cipargamin control), MEAN ([1]; HCR1, [Cipargamin] 1600 nM): 71.5 % of no-cipargamin control | Parasite proliferation (% of no-cipargamin control), MEAN ([1]; HCR1, [Cipargamin] 3200 nM): 44.9 % of no-cipargamin control | Parasite proliferation (% of no-cipargamin control), MEAN ([1]; HCR1, [Cipargamin] 6400 nM): 13.3 % of no-cipargamin control | Parasite proliferation (% of no-cipargamin control), MEAN ([1]; HCR1, [Cipargamin] 25600 nM): -0.564 % of no-cipargamin control | IC50 ([1]; HCR1, MEAN, source data of Fig. 2, read-out: IC50 values, MEAN): 2840 nM | IC50 ([1]; read-out: Mean IC50 value ± SEM for growth inhibition, HCR1, Supplementary Table 1, Set 1): 2840 ± 190 nM | IC50 ([2]; Dd2-Polδ, single experiments, source data of Fig. 2 (nM in Supplementary Table 1), read-out: IC50 values): 1.4 nM | IC50 ([2]; Plasmodium falciparum, DD2, Dd2-Polδ, MEAN, source data of Fig. 2, read-out: IC50 values, MEAN): 1.43 nM | IC50 ([2]; Plasmodium falciparum, DD2, parental Dd2-Polδ, paired with MMV665949-selected Culture 1, n = 3, read-out: IC50 value): 0.57 ± 0.02 nM | Parasite proliferation (% of no-cipargamin control), MEAN ([3]; Dd2-PfATP4T418N,P990R, [Cipargamin] 0.195312 nM): 100.7 % of no-cipargamin control | Parasite proliferation (% of no-cipargamin control), MEAN ([3]; Dd2-PfATP4T418N,P990R, [Cipargamin] 0.390625 nM): 102.0 % of no-cipargamin control | Parasite proliferation (% of no-cipargamin control), MEAN ([3]; Dd2-PfATP4T418N,P990R, [Cipargamin] 0.78125 nM): 99.8 % of no-cipargamin control | Parasite proliferation (% of no-cipargamin control), MEAN ([3]; Dd2-PfATP4T418N,P990R, [Cipargamin] 1.5625 nM): 99.9 % of no-cipargamin control | Parasite proliferation (% of no-cipargamin control), MEAN ([3]; Dd2-PfATP4T418N,P990R, [Cipargamin] 3.125 nM): 94.7 % of no-cipargamin control | Parasite proliferation (% of no-cipargamin control), MEAN ([3]; Dd2-PfATP4T418N,P990R, [Cipargamin] 6.25 nM): 78.8 % of no-cipargamin control | Parasite proliferation (% of no-cipargamin control), MEAN ([3]; Dd2-PfATP4T418N,P990R, [Cipargamin] 25 nM): 1.2 % of no-cipargamin control | IC50 ([3]; Dd2-PfATP4T418N,P990R, single experiments, source data of Fig. 2 (nM in Supplementary Table 1), read-out: IC50 values): 7.9 nM | IC50 ([3]; Plasmodium falciparum, DD2, Dd2-PfATP4T418N,P990R, MEAN, source data of Fig. 2, read-out: IC50 values, MEAN): 9.17 nM | IC50 ([3]; Plasmodium falciparum, DD2, Dd2-PfATP4T418N,P990R, Supplementary Table 1, Set 1, read-out: Mean IC50 value ± SEM for growth inhibition): < 10 nM | Parasite proliferation (% of no-cipargamin control), MEAN ([4]; HCR2, [Cipargamin] 100 nM): 99.1 % of no-cipargamin control | Parasite proliferation (% of no-cipargamin control) ([4]; HCR2, [Cipargamin] 100 nM, single experiments 1-16): 100.1 % of no-cipargamin control and 100.0 % of no-cipargamin control and 96.3 % of no-cipargamin control and 89.0 % of no-cipargamin control | Parasite proliferation (% of no-cipargamin control), MEAN ([4]; HCR2, [Cipargamin] 200 nM): 93.8 % of no-cipargamin control | Parasite proliferation (% of no-cipargamin control), MEAN ([4]; HCR2, [Cipargamin] 400 nM): 90.7 % of no-cipargamin control | Parasite proliferation (% of no-cipargamin control), MEAN ([4]; HCR2, [Cipargamin] 800 nM): 85.4 % of no-cipargamin control | Parasite proliferation (% of no-cipargamin control), MEAN ([4]; HCR2, [Cipargamin] 1600 nM): 71.9 % of no-cipargamin control | Parasite proliferation (% of no-cipargamin control), MEAN ([4]; HCR2, [Cipargamin] 3200 nM): 46.7 % of no-cipargamin control | Parasite proliferation (% of no-cipargamin control), MEAN ([4]; HCR2, [Cipargamin] 6400 nM): 13.6 % of no-cipargamin control | Parasite proliferation (% of no-cipargamin control), MEAN ([4]; HCR2, [Cipargamin] 25600 nM): -0.466 % of no-cipargamin control | IC50 ([4]; HCR2, MEAN, source data of Fig. 2, read-out: IC50 values, MEAN): 2920 nM | IC50 ([4]; read-out: Mean IC50 value ± SEM for growth inhibition, HCR2, Supplementary Table 1, Set 1): 2920 ± 200 nM | Mean IC50 value ± SEM for growth inhibition ([5]; Supplementary Table 1, Set 1): subnanomolar | Parasite proliferation (% of no-cipargamin control), MEAN ([5]; [Cipargamin] 0.195312 nM): 100.9 % of no-cipargamin control | Parasite proliferation (% of no-cipargamin control), MEAN ([5]; [Cipargamin] 0.390625 nM): 94.5 % of no-cipargamin control | Parasite proliferation (% of no-cipargamin control), MEAN ([5]; [Cipargamin] 0.78125 nM): 30.2 % of no-cipargamin control | Parasite proliferation (% of no-cipargamin control), MEAN ([5]; [Cipargamin] 1.5625 nM): 3.4 % of no-cipargamin control

Reference: article PMC9525273 (Nature Communications, 2022)
